Experimental data as given in patent US9376424B2, “Methods for treating post traumatic stress disorder” (AZEVAN PHARMACEUTICALS, INC., priority 2010, dated 2016).
Entries after “also recorded” stand apart in the source; their conditions may differ. One block for each molecule: values may come before it.

How the values were obtained:
resident male rats = assay: Resident-Intruder Model of Stress and Aggression in Rats (neuroimaging); type: in vivo, rat; conditions: awake resident male rats, 5 mg/kg
From the text: Resident-Intruder Model of Stress and Aggression in Rats. Neuroimaging is used to assess the blockade of stress/arousal with test compound compared to control. The effect of AVN251-HCl on functional circuitry was examined using the imaging method for awake rats. Additional details of the assay are described in Ferris et al. (2008).
Male rats in the company of a female cage mate will piloerect in the presence of a male intruder. This piloerection is a sign of stress and aggressive intent and is associated with activation of stress/arousal circuits in the brain. […] Resident male rats from six male:female pairs were imaged while fully awake. During a single imaging session, these males were treated with vehicle or AVN251-HCl (5 mg/kg).
The total volume of brain activation for resident males confronted with their mate alone, mate plus intruder, and mate plus intruder in the presence of AVN251-HCl can be viewed as 3D models. While there appears to be a general decrease in BOLD signal in major regions with AVN251-HCl treatment, sexual motivation, as assessed by the presentation of a novel receptive female, was unaffected by V1a receptor blockade.
Stress circuit activation in response to an intruder male is assessed by obtaining brain scans viewed from a caudal/dorsal perspective as translucent shells. The localization of activated voxels is mapped as 3D volumes of activation, which are composed of 10 subjects each. Once fully registered and segmented, the statistical responses for each subject are averaged on a voxel-by-voxel basis. Those averaged voxels exceeding a 2.0% threshold are shown in their appropriate spatial location. Functional images are acquired on awake rats at 4.7 T.
The 3D volumes of activation are composed from results obtained with 10 subjects in each condition. […] Particular olfactory systems measured included the anterior olfactory nucleus, olfactory tubercle, piriform cortex, n. laterial olfactory tract, and entrorhinal cortex. Particular dopaminergic systems measured included the prelimbic cortex, accumbens, ventral pallidum, medial dorsal thalamus, and ventral tegmentum.
Awake rats were imaged when presented with their mate+an intruder, a highly stressful stimulus.

C57B1/6J males = assay: Social Interaction Test after chronic social subjugation; type: in vivo, mouse; conditions: mice, 28-day treatment regimen
From the text: Mouse Chronic Subordination Model of Depression. Social stress is a factor in the etiology of several psychopathologies, with individuals differing in vulnerability. Adult male mice are subjected to a model of chronic psychosocial stress in which resident/intruder dyads live chronically in sensory contact and physically interact on a daily basis.
Anti-depressant Effect in the Social Interaction Test. […] A rapid subjugation paradigm in mice lead to diminished social interaction behavior, where the dependent measures are distance traveled and time in the Interaction Zone. […] These observations are consistent with the subordination/social interaction model as a rapid behavioral screen for potential antidepressants. Additional details are described in Berton et al. (2006).
Briefly, C57B1/6J males were defeated daily for 10 days by resident, highly aggressive CF-1 males. After 5 minutes of direct exposure, a perforated plastic partition was inserted into the cage that allowed olfactory and visual contact without physical defeat for the remaining 23 hr 55 min each day. The C57 males were exposed to a different resident male in a different cage each day to increase the stress of the procedure (it was observed that all CF-1 males attacked the intruder each day). At the end of the 10 day defeat procedure, the C57 males were tested in an open field apparatus during the dark phase. A dominant male was caged in an area of the open field apparatus termed the “social interaction zone.” Time and distance traveled in the zone were recorded. The C57 males were then divided randomly among the following treatments: AVN246-HCl (2 mg/kg), saline vehicle (0.45%), or chlordiazepoxide (10 mg/kg). Treatments were given daily (i.p.) for 28 days and the animals were retested. Behavioral changes were determined by calculating difference scores (Post-Pretest) and these scores were analyzed.

human V1a receptor = target: T1, human V1a receptor (Homo sapiens, UniProt P37288); assay: Inhibition of phosphatidylinositol turnover (V1a); type: cell-based; conditions: V1a
T1 construct: host or cells: CHO cells
T1 sequence (P37288 whole entry): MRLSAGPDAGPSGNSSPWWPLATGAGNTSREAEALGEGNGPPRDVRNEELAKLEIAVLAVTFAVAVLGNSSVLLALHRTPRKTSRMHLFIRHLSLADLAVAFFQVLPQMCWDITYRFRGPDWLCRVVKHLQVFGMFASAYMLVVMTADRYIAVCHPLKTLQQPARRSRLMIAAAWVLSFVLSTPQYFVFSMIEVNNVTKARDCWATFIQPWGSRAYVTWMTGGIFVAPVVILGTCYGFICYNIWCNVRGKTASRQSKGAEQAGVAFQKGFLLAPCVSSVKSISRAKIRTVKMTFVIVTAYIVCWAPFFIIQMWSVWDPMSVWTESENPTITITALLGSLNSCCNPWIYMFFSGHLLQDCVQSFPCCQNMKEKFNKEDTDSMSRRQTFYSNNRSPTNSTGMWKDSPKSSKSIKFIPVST
From the text: Inhibition of phosphatidylinositol turnover (V1a). The physiological effects of vasopressin are mediated through specific G-protein coupled receptors. The vasopressin V1a receptor is coupled to the Gq/G11 family of G proteins and mediates phosphatidylinositol turnover. The agonist or antagonist character of the compounds of the invention may be determined by their ability to inhibit vasopressin-mediated turnover of phosphatidylinositol by the procedure described in the following paragraphs.
Cell culture and labeling of cells. Three days prior to the assay, near-confluent cultures of hV1a or hV1b cells were dissociated and seeded in 6-well tissue culture plates, about 100 wells being seeded from each 75 cm^2 flask (equivalent to 12:1 split ratio). Each well contained 1 mL of growth medium with 2 μCi of [^3H]myo-inositol (American Radiolabeled Chemicals, St. Louis, Mo., USA).
Incubations (V1a and V1b). All assays were in triplicate except for basal and 10 nM AVP (both n=6). AVP ((arginine vasopressin), Peninsula Labs, Belmont, Calif., USA (#8103)) was dissolved in 0.1N acetic acid. Test agents were dissolved in DMSO and diluted in DMSO to 200 times the final test concentration. […] The order of incubations was randomized. Incubations were initiated by removing the prelabeling medium, washing the monolayer once with 1 mL of 0.9% NaCl, and transferring the contents of the assay tubes to corresponding wells. The plates were incubated for 1 hour at 37° C. Incubations were terminated by removing the incubation medium and adding 500 μL of ice cold 5% (w/v) trichloroacetic acid and allowing the wells to stand for 15 min.
Measurement of [^3H]inositol phosphates (V1a and V1b). BioRad Poly-Prep Econo-Columns were packed with 0.3 mL of AG 1×−8 100-200 formate form resin. Resin was mixed 1:1 with water and 0.6 mL added to each column. Columns were then washed with 10 mL water. Scintillation vials (20 mL) were placed under each column. For each well, the contents were transferred to a minicolumn, after which the well was washed with 0.5 mL distilled water, which was also added to the minicolumn. The columns were then washed twice with 5 mL of 5 mM myo-inositol to elute free inositol. Aliquots (1 mL) were transferred to 20 mL scintillation vials and 10 mL of Beckman Ready Protein Plus added. After the myo-inositol wash was complete, empty scintillation vials were placed under the columns, and [^3H]inositol phosphates were eluted with three additions of 1 mL 0.5 M ammonium formate containing 0.1 N formic acid. Elution conditions were optimized to recover inositol mono-, bis-, and trisphosphates, without eluting the more metabolically inert tetrakis-, pentakis-, and hexakis-phosphates. To each sample was added 10 mL of a high salt capacity scintillation fluid such as Tru-Count High Salt Capacity or Packard Hionic-Fluor. Inositol lipids were measured by adding 1 mL of 2% sodium dodecyl sulfate (SDS) to each well, allowing the wells to stand for at least 30 min., and transferring the solution to 20 mL scintillation vials, to which 10 mL Beckman Ready Protein Plus scintillation fluid was then added. Samples were counted in a Beckman LS 3801 liquid scintillation counter for 10 min. Total inositol incorporation for each well was calculated as the sum of free inositol, inositol phosphates, and inositol lipids.
Data analysis (V1a and V1b): concentration-inhibition experiments. Concentration-response curves for AVP and concentration-inhibition curves for test agents versus 10 nM AVP were analyzed by nonlinear least-squares curve-fitting to a 4-parameter logistic function. Parameters for basal and maximal inositol phosphates, EC50 or IC50, and Hill coefficient were varied to achieve the best fit. The curve-fitting was weighted under the assumption that the standard deviation was proportional to dpm of radioactivity. Full concentration-response curves for AVP were run in each experiment. […]

male Long Evans rats = assay: Predatory fear conditioning model of PTSD (ferret/sucrose, fMRI of awake rats); type: in vivo, rat
From the text: The use of the compounds and compositions described herein for treating PTSD and stress-related affective illness is established using a model of predatory fear conditioning. The model uses fMRI data of rats exposed to a ferret, a natural predator, as the unconditioned stimulus while experiencing the taste of sucrose, which is highly rewarding, as the conditioned stimulus. The taste of sucrose becomes associated with the traumatic memory of the ferret. […] This hyperarousal pattern of brain activity in response to a stimulus associated with a traumatic memory is characteristic of PTSD. […] Thus, the memory of fear is worse than fear itself. Treatment with compounds and compositions described herein block the hyperarousal seen with the sucrose-associated traumatic memory in untreated animals. The compounds described herein are efficacious in a this new preclinical model of PTSD in rats that utilized predatory fear as the unconditioned stimulus and the taste of sucrose as the conditioned stimulus. […] Compounds described herein are also efficacious in established models of depression (social interaction test), anxiety (Elevated Plus Maze, Light:Dark Shuttle Box), and aggression (resident:intruder test). The predatory fear conditioning juxtaposes an aversive unconditioned stimulus (threat of predation), with the taste of sucrose as the conditioned stimulus. During an imaging session, awake rats are exposed to a live, sable ferret placed into the bore of the magnet. This presentation of the predator is done with and without the application of sucrose to the tongue of the rat. Retrieval of the memory weeks later by the application of sucrose alone (as a Conditioned Stimulus) in the absence of the ferret elicits a robust increase in brain activity that far exceeds the initial presentation of the predator. […]

Compound: CNCCC(Oc1ccc(C(F)(F)F)cc1)c1ccccc1 (stereo not shown) [fluoxetine]
- sexual motivation (reward circuit activation by novel receptive female) (resident male rats): markedly diminished activation of this circuit
- effect on deficits in social interaction produced by chronic subordination (C57B1/6J males): reversed deficits produced by chronic subordination
- effect on deficits in social interaction produced by chronic subordination (C57B1/6J males; listed as Fluoxetine): produced comparable improvements

- agonist or antagonist character (inhibition of vasopressin-mediated phosphatidylinositol turnover) (human V1a receptor): vasopressin V1a antagonists
Compound: O=C(NCc1cccc(C(F)(F)F)c1)C(CCC(=O)N1CCC(N2CCCCC2)CC1)N1C(=O)C(N2C(=O)OCC2c2ccccc2)C1C=Cc1ccccc1 (stereo not shown) [Example 88]

Compound: C[C@@H](NC(=O)[C@@H](CC(=O)N1CCC(N2CCCCC2)CC1)N1C(=O)[C@@H](N2C(=O)OC[C@@H]2c2ccccc2)[C@H]1/C=C/c1cccc(I)c1)c1ccccc1 [Example 266]
- retrieval of predatory fear memory (male Long Evans rats): effective in blocking retrieval of predatory fear memory
- predatory fear response in the unconditioned test animal (activation for ferret alone) (male Long Evans rats; pretreatment 5 mg/kg body weight): retained
- hyperarousal brain activation pattern (BOLD) on re-exposure to sucrose alone (male Long Evans rats; pretreatment 5 mg/kg body weight, two weeks after conditioning, listed as AVN576): blocked the hyperarousal brain activation pattern; also recorded: significantly reduces brain activation

- agonist or antagonist character (inhibition of vasopressin-mediated phosphatidylinositol turnover) (human V1a receptor): vasopressin V1a antagonists
Compound: O=C(NCc1cccc(C(F)(F)F)c1)C(CC(=O)N1CCC(N2CCCCC2)CC1)N1C(=O)C(N2C(=O)OCC2c2ccccc2)C1C=Cc1ccccc1 (stereo not shown) [Example 44]

- agonist or antagonist character (inhibition of vasopressin-mediated phosphatidylinositol turnover) (human V1a receptor): vasopressin V1a antagonists
Compound: O=C(NCc1cccc(C(F)(F)F)c1)C(CCC(=O)N1CCN(C2CCCCC2)CC1)N1C(=O)C(N2C(=O)OCC2c2ccccc2)C1C=Cc1ccccc1 (single isomer, unassigned) [Example 110]

- agonist or antagonist character (inhibition of vasopressin-mediated phosphatidylinositol turnover) (human V1a receptor): vasopressin V1a antagonists
Compound: O=C(NCc1cccc(C(F)(F)F)c1)[C@H](CCC(=O)N1CCN(CCc2ccccc2)CC1)N1C(=O)[C@@H](N2C(=O)OC[C@@H]2c2ccccc2)[C@H]1C=Cc1ccccc1 (single isomer, unassigned) [Example 35]
